# Laboratory results reported in US10674724B2, “Method of activating immune response in plants” (priority 2012, dated 2020).
# Columns and labels:
# [1] = biological target: T1, BTB/POZ-Δ513 interaction (Arabidopsis thaliana, UniProt P93002); experiment: BTB/POZ-Δ513 pull-down assay; format: biochemical; set-up: made in house; host or cells: E. coli; conditions: 1 mM SA
# T1 sequence (P93002 513-593): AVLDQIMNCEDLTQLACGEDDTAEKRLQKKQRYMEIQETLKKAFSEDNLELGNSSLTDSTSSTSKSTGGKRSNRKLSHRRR
# Description: The BTB/POZ (amino acids 1-190 of NPR1) was expressed in E. coli as a C-terminal fusion to the Strep-Tag according to standard protocols. The Δ513 of NPR1 was expressed as an N-terminal fusion to the HA-Tag as described above. The VLRSgt (as described in Hall et al. (2007) Plant J 49, 579-591) was expressed in E. coli as an N-terminal fusion to the GST-Tag according to standard protocols. The pull-down assay was performed in the Strep-Tactin buffer. The antibodies used for detecting the tags in the BTB/POZ-Strep was from Qiagen (catalog #34850) and those used for the tags in HA-Δ513 or the GST-VLRSgt were from Santa Cruz Biotechnology (catalog #: sc-7392 and sc-138).
# Given that the plant two-hybrid system is an in vivo method of analysis, an indirect effect of SA on the interaction of the BTB/POZ and the C-terminus of NPR1 cannot be ruled out. Thus, the interaction in vitro in a pull-down assay (FIG. 8) was tested. […] As negative controls, first an unrelated protein (VLRSgt) was shown not to interact with BTB/POZ (FIG. 5D) and secondly Δ513 was shown not to interact with the solid support in the absence of BTB/POZ (FIG. 5E).
# [2] = biological target: T2, NPR1 C521S/C529S (Arabidopsis thaliana, UniProt P93002, C521S/C529S); experiment: Sephacryl S300 gel filtration of NPR1 Cys-to-Ser mutant; format: biochemical; conditions: 1 mM SA
# T2 construct: both full-length NPR1 and Δ513 harboring C-to-S mutations at Cys^521/529; made in house; host or cells: E. coli
# T2 sequence (P93002 whole entry C521S/C529S): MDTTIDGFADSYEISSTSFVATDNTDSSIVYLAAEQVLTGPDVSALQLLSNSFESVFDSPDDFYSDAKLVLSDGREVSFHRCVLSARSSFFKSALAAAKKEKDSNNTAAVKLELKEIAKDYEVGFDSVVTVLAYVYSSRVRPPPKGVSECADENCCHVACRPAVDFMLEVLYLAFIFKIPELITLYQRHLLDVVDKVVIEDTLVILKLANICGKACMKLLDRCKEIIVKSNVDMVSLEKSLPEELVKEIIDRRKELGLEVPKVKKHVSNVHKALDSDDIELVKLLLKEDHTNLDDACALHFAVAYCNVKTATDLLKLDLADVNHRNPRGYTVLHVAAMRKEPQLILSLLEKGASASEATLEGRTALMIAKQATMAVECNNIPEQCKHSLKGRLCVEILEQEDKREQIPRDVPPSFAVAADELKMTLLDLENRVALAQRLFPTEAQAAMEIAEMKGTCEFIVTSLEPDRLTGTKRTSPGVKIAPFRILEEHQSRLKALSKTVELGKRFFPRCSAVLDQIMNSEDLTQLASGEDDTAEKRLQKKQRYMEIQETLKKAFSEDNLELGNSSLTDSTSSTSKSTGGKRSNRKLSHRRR
# Description: (§1) Strep-tagged purified proteins in a final volume of 2 ml were subjected to gel filtration analysis on the Sephacryl S100 HR or Sephacryl S300 HR packed in 50 cm long HR 16 columns (GE Health) and equilibrated with S300 chromatography buffer (50 mM HEPES, pH 7.4, 250 mM NaCl. Elutions, in 0.5 ml fractions, were performed in the same buffer at a flow rate of 0.8 ml/min. Where indicated, proteins were incubated with 1 mM SA, 1 mM catechol, 1 mM 4-hydroxy benzoic acid, or 1 mM methyl-salicylate at room temperature for 30 min prior to chromatography as described above with the exception that the chromatography buffer was supplemented with 1 mM SA, 1 mM catechol, 1 mM 4-hydroxy benzoic acid, or 1 mM methyl-salicylate, respectively. In the case of the EDTA treatment, NPR1 was stripped of its metal by a 50 mM EDTA treatment of 30 min, followed by an incubation of 30 min with 1 mM SA prior to gel filtration. In this case, the chromatography buffer was supplemented with 1 mM SA.
# [3] = biological target: T3, NPR1 (Arabidopsis thaliana, UniProt P93002); experiment: Sephacryl S300 gel filtration of Strep-tagged NPR1; format: biochemical
# T3 construct: made in house; host or cells: E. coli
# T3 sequence (P93002 whole entry): as the sequence (P93002 whole entry C521S/C529S) above, with S521C, S529C counted along it
# Description: as §1
# [4] = biological target: T3, NPR1; experiment: classical non-equilibrium solid-phase [14C]SA binding; conditions: radiolabeled SA, washes to remove unbound ligand
# Description: To test whether NPR1 can bind SA directly, a classic method to assess Kd values was used, which involved coupling NPR1 to a solid phase and incubating it with radiolabeled SA, followed by washes to remove unbound ligand and counting the amount of ligand bound to NPR1.
smiles,measurement,setting,value
"O=C(O)c1ccccc1O [SA, Salicylic acid]",BTB/POZ-Δ513 interaction in pull-down,[1],disrupted
same,"SA-induced NPR1 conformation change, Cys521/529 mutant",[2],abolished the NPR1 conformation change
same,conformation of NPR1 (S300 elution profile),"[3]; 1 mM SA, catechol, 4-hydroxy benzoic acid or methyl-salicylate, 30 min, DTT concentration not given",redistributed to the included volume
same,SA-induced NPR1 conformation change after metal chelation,"[3]; 50 mM EDTA 30 min, then 1 mM SA 30 min",abolished the NPR1 conformation change
same,binding of SA to NPR1 coupled to a solid phase,[4],not above that observed with a solid phase containing no protein
